# Experimental data as given in patent publication US9073892B2, “Indazolyl triazol derivatives” (Merck Serono S.A., priority 2010, dated 2015).
# Key:
# [1] = test system: IL1β-induced IL8 release in THP1 cells; test: IRAK IL8 secretion functional assay; assay type: cell-based; settings: Homo sapiens; THP-1 cells, IL1β 100 ng/ml overnight, IL8 by HTRF; read-out: IC50, Secretion THP-1/IL-β induced IL8 release
# Source text: IRAK IL8 Secretion Functional Assay:
# THP1 cells are human monocytes derived from acute monocytic leukemia. IL1β receptor expressed on the surface membrane of THP1 cells induced IL8 release. IRAKs are kinase signaling downstream of TLRs and TNF, IL-18, IL-33 and IL-1 receptors.
# In cells, IRAK4 is upstream of IRAK1.
# The Human IL8 Kit, provided by CysBio International based in Bagnols/Cèze FR, allows for the quantitative determination of IL-8 in cell-culture supernatants.
# Anti-cytokine IL8 antibodies are respectively labeled with europium Cryptate and XL665. Upon their binding to IL-8 molecules, the two antibodies come into close proximity, allowing FRET (Fluorescence Resonance Energy Transfer) to occur. This FRET increases proportionally to IL-8 concentrations and be converted in IL8 pg amounts.
# THP-1 cells are seeded on Day 1 in 384 well plate with RPMI 1640 at a density of 30 000 cells/well. Compounds 4×/2% DMSO (range of concentrations from 20 μM to 1 nM) and IL1β 4× at 100 ng/ml final are added to cells overnight at 37° C., 5% CO2. Measurement of IL-8 secretion is done by mixing on Day2 10 μl of supernatant with 10 μl of a mix solution of europium Cryptate and XL665 (v:v) as described by supplier.
# HTRF (homogeneous time resolved fluorescence) signal is measured after 3 hours incubation time at 30° C. with a BMG Pherastar reader or equivalent.
# IRAK1/4 human = test system: T1, IRAK1/4 human; test: IRAK1/4 phosphorylation IC50 (enzymatic assay, table 2); assay type: biochemical; settings: human IRAK1/4 phosphorylation
# T1 construct: fused on or other part: His tag and TEV cleavage site at the N-terminus
# Procedure, shortened: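 Inhibition values are IC50s. They come from 384-well reactions in which His-TEV-tagged human IRAK-1 or IRAK-4 (the latter with STK1-biotin peptide) met ATP and compounds in DMSO at 20 µM to 1 nM. The buffer was 50 mM Hepes pH7.0 containing MgCl2, DTT, EGTA and BSA, and incubation lasted 2 or 3 hours.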
SMILES,IC50 [1],IC50 (IRAK1/4 human)
"CCN1CCC[C@@H]1CNC(=O)c1ccc(-n2cc(-c3n[nH]c4ccc(C)cc34)nn2)cc1 [Example 3, N-{[(2R)-1-ethylpyrrolidin-2-yl]methyl}-4-[4-(5-methyl-1H-indazol-3-yl)-1H-1,2,3-triazol-1-yl]benzamide]",0.1 to 1 µM,0.1 to 1 µM
"CCN1CCC[C@H]1CNC(=O)c1ccc(-n2cc(-c3n[nH]c4ccc(C)cc34)nn2)cc1 [Example 4, N-{[(2S)-1-ethylpyrrolidin-2-yl]methyl}-4-[4-(5-methyl-1H-indazol-3-yl)-1H-1,2,3-triazol-1-yl]benzamide]",0.1 to 1 µM,0.1 to 1 µM
"Cc1ccc2[nH]nc(-c3cn(-c4ccc(CN5CCCC5)cc4)nn3)c2c1 [Example 6, 5-methyl-3-{1-[4-(pyrrolidin-1-ylmethyl)phenyl]-1H-1,2,3-triazol-4-yl}-1H-indazole]",0.1 to 1 µM,0.1 to 1 µM
"CNCc1ccc(-n2cc(-c3n[nH]c4ccc(C)cc34)nn2)cc1 [Example 8, N-methyl-1-{4-[4-(5-methyl-1H-indazol-3-yl)-1H-1,2,3-triazol-1-yl]phenyl}methanamine]",0.1 to 1 µM,0.1 to 1 µM
"Cc1ccc2[nH]nc(-c3cn(-c4ccc(CN5CCN(C)CC5)cc4)nn3)c2c1 [Example 9, 5-methyl-3-(1-{4-[(4-methylpiperazin-1-yl)methyl]phenyl}-1H-1,2,3-triazol-4-yl)-1H-indazole]",0.1 to 1 µM,1 to 5 µM
"Cc1ccc2[nH]nc(-c3cn(-c4ccc(CN(C)C)cc4)nn3)c2c1 [Example 10, N,N-dimethyl-1-{4-[4-(5-methyl-1H-indazol-3-yl)-1H-1,2,3-triazol-1-yl]phenyl}methanamine]",0.1 to 1 µM,0.1 to 1 µM
"Cc1ccc2[nH]nc(-c3cn(-c4ccc(CN5CCNCC5)cc4)nn3)c2c1 [Example 11, 5-methyl-3-{1-[4-(piperazin-1-ylmethyl)phenyl]-1H-1,2,3-triazol-4-yl}-1H-indazole]",0.1 to 1 µM,0.1 to 1 µM
"O=C(NCc1ccc(-n2cc(-c3n[nH]c4ccccc34)nn2)cc1)c1ccncc1 [Example 15, N-{4-[4(1H-indazol-3-yl]-1H-1,2,3-triazol-1-yl)benzyl}isonicotinamide]",0.1 to 1 µM,1 to 5 µM
"O=C(Cc1ccc(-n2cc(-c3n[nH]c4ccccc34)nn2)cc1)N1CCCC1 [Example 19, 3-{1-[4-(2-oxo-2-pyrrolidin-1-ylethyl)phenyl]-1H-1,2,3-triazol-4-yl}-1H-indazole]",0.1 to 1 µM,0.1 to 1 µM
"O=C(CCc1ccc(-n2cc(-c3n[nH]c4ccccc34)nn2)cc1)N1CCOCC1 [Example 22, 3-{1-[4-(3-morpholin-4-yl-3-oxopropyl)phenyl]-1H-1,2,3-triazol-4-yl}-1H-indazole]",0.1 to 1 µM,1 to 5 µM
"O=C(CCc1ccc(-n2cc(-c3n[nH]c4ccccc34)nn2)cc1)N1CCCC1 [Example 23, 3-{1-[4-(3-oxo-3-pyrrolidin-1-ylpropyl)phenyl]-1H-1,2,3-triazol-4-yl}-1H-indazole]",0.1 to 1 µM,1 to 5 µM
"COc1cc(-n2cc(-c3n[nH]c4ccccc34)nn2)ccc1C(=O)N(C)C [Example 25, 4-[4-(1H-indazol-3-yl)-1H-1,2,3-triazol-1-yl]-2-methoxy-N,N-dimethylbenzamide]",0.1 to 1 µM,0.1 to 1 µM
"O=C(c1ccc(-n2cc(-c3n[nH]c4ccccc34)nn2)cc1)N1CCC(O)C1 (centres unmarked) [Example 26, 1-{4-[4-(1H-indazol-3-yl)-1H-1,2,3-triazol-1-yl]benzoyl}pyrrolidin-3-ol]",0.1 to 1 µM,0.1 to 1 µM
"CN(C)C1CCN(C(=O)c2ccc(-n3cc(-c4n[nH]c5ccccc45)nn3)cc2)C1 (centres unmarked) [Example 27, 1-{4-[4-(1H-indazol-3-yl)-1H-1,2,3-triazol-1-yl]benzoyl}-N,N-dimethylpyrrolidin-3-amine]",0.1 to 1 µM,0.1 to 1 µM
"O=C(c1ccc(-n2cc(-c3n[nH]c4ccccc34)nn2)cc1)N1CCC(CO)CC1 [Example 28, (1-{4-[4-(1H-indazol-3-yl)-1H-1,2,3-triazol-1-yl]benzoyl}piperidin-4-yl)methanol]",0.1 to 1 µM,0.1 to 1 µM
"CN(C)CC1CCCN(C(=O)c2ccc(-n3cc(-c4n[nH]c5ccccc45)nn3)cc2)C1 (centres unmarked) [Example 29, 1-(1-{4-[4-(1H-indazol-3-yl)-1H-1,2,3-triazol-1-yl]benzoyl}piperidin-3-yl)-N,N-dimethylmethanamine]",0.1 to 1 µM,0.1 to 1 µM

SMILES,IC50 [1],IC50 (IRAK1/4 human)
"CN1CCC(NC(=O)c2ccc(-n3cc(-c4n[nH]c5ccccc45)nn3)cc2)C1=O (centres unmarked) [Example 31, 4-[4-(1H-indazol-3-yl)-1H-1,2,3-triazol-1-yl]-N-(1-methyl-2-oxopyrrolidin-3-yl)benzamide]",0.1 to 1 µM,0.1 to 1 µM
"Cc1ccc2[nH]nc(-c3cn(-c4ccc(C(=O)N5CCOCC5)cc4)nn3)c2c1 [Example 32, 5-methyl-3-{1-[4-(morpholin-4-ylcarbonyl)phenyl]-1H-1,2,3-triazol-4-yl}-1H-indazole]",0.1 to 1 µM,0.1 to 1 µM
"COc1cc(-n2cc(-c3n[nH]c4ccccc34)nn2)ccc1C(=O)N1CCOCC1 [Example 34, 3-{1-[3-methoxy-4-(morpholin-4-ylcarbonyl)phenyl]-1H-1,2,3-triazol-4-yl}-1H-indazole]",0.1 to 1 µM,1 to 5 µM
"O=C(c1ccc(-n2cc(-c3n[nH]c4ccccc34)nn2)cc1)N1CCCC1 [Example 35, 3-{1-[4-(pyrrolidin-1-ylcarbonyl)phenyl]-1H-1,2,3-triazol-4-yl}-1H-indazole]",0.1 to 1 µM,< 0.1 µM
"CN(C)C(=O)c1ccc(-n2cc(-c3n[nH]c4ccccc34)nn2)cc1 [Example 36, 4-[4-(1H-indazol-3-yl)-1H-1,2,3-triazol-1-yl]-N,N-dimethylbenzamide]",0.1 to 1 µM,0.1 to 1 µM
"COCC1CCN(C(=O)c2ccc(-n3cc(-c4n[nH]c5ccccc45)nn3)cc2)CC1 [Example 37, 3-[1-(4-{[4-(methoxymethyl)piperidin-1-yl]carbonyl}phenyl)-1H-1,2,3-triazol-4-yl]-1H-indazole]",0.1 to 1 µM,0.1 to 1 µM
Cc1cnccc1-c1ccc(-n2cc(-c3n[nH]c4ccccc34)nn2)cc1 [Example 290],,0.1 to 1 µM
CC(=O)Nc1ccc(-c2ccc(-n3cc(-c4n[nH]c5ccccc45)nn3)cc2)cn1 [Example 291],,0.1 to 1 µM
O=C(c1ccc(-n2cc(-c3n[nH]c4ccc(CN5CC(O)C5)cc34)nn2)cc1)N1CCOCC1 [Example 292],,0.1 to 1 µM
Cc1ccc2c(-c3cn(-c4ccc(CN5CC6CCC(C5)O6)cc4)nn3)n[nH]c2c1 [Example 293],,0.1 to 1 µM
c1ccc2c(-c3cn(-c4ccc(-c5cnn(C6CCNCC6)c5)cc4)nn3)n[nH]c2c1 [Example 294],,0.1 to 1 µM
O=C(c1ccc(-n2cc(-c3n[nH]c4ccc(CNCc5cccc(O)c5)cc34)nn2)cc1)N1CCOCC1 [Example 295],,0.1 to 1 µM
O=C(c1ccc(-n2cc(-c3n[nH]c4cc(C(F)(F)F)ccc34)nn2)cc1)N1CCOCC1 [Example 296],,0.1 to 1 µM
FC(F)(F)c1ccc2c(-c3cn(-c4ccc(CN5CCOCC5)cc4)nn3)n[nH]c2c1 [Example 297],,1 to 5 µM
FC(F)(F)c1ccc2c(-c3cn(-c4ccc(C5CCNCC5)cc4)nn3)n[nH]c2c1 [Example 299],,0.1 to 1 µM
